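In this assay, cells in 96-well plates receive the compound at five concentrations for 48 hours. Endpoints are linearly interpolated between the surrounding concentrations. TGI: total growth inhibition.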
How the values were obtained:
Experiment in all cases: inhibition of tumour cell growth, NCI panel, 48 h
786-0 renal = tested on: 786-0 renal
A498 renal = tested on: A498 renal
A549 NSCLC = tested on: A549 NSCLC
ACHN renal = tested on: ACHN renal
CAKI-1 renal = tested on: CAKI-1 renal
CCRF-CEM leukemia = tested on: CCRF-CEM leukemia
COLO 205 colon = tested on: COLO 205 colon
DLD-1 colon = tested on: DLD-1 colon
DMS 114 small cell lung = tested on: DMS 114 small cell lung
DMS 273 small cell lung = tested on: DMS 273 small cell lung
EKVX NSCLC = tested on: EKVX NSCLC
HCC-2998 colon = tested on: HCC-2998 colon
HCT-116 colon = tested on: HCT-116 colon
HCT-15 colon = tested on: HCT-15 colon
HL-60(TB) leukemia = tested on: HL-60(TB) leukemia
HOP-62 NSCLC = tested on: HOP-62 NSCLC
HOP-92 NSCLC = tested on: HOP-92 NSCLC
HT29 colon = tested on: HT29 colon
IGROV1 ovarian = tested on: IGROV1 ovarian
K-562 leukemia = tested on: K-562 leukemia
KM12 colon = tested on: KM12 colon
KM20L2 colon = tested on: KM20L2 colon
LOX IMVI melanoma = tested on: LOX IMVI melanoma
LXFL 529 NSCLC = tested on: LXFL 529 NSCLC
M14 melanoma = tested on: M14 melanoma
M19-MEL melanoma = tested on: M19-MEL melanoma
MALME-3M melanoma = tested on: MALME-3M melanoma
MOLT-4 leukemia = tested on: MOLT-4 leukemia
NCI-H226 lung = tested on: NCI-H226 lung
NCI-H23 lung = tested on: NCI-H23 lung
NCI-H460 lung = tested on: NCI-H460 lung
NCI-H522 lung = tested on: NCI-H522 lung
OVCAR-3 ovarian = tested on: OVCAR-3 ovarian
OVCAR-4 ovarian = tested on: OVCAR-4 ovarian
OVCAR-5 ovarian = tested on: OVCAR-5 ovarian
OVCAR-8 ovarian = tested on: OVCAR-8 ovarian
RPMI-8226 leukemia = tested on: RPMI-8226 leukemia
RXF 393 renal = tested on: RXF 393 renal
SF-295 CNS = tested on: SF-295 CNS
SF-539 CNS = tested on: SF-539 CNS
SK-MEL-2 melanoma = tested on: SK-MEL-2 melanoma
SK-MEL-28 melanoma = tested on: SK-MEL-28 melanoma
SK-MEL-5 melanoma = tested on: SK-MEL-5 melanoma
SK-OV-3 ovarian = tested on: SK-OV-3 ovarian
SN12C renal = tested on: SN12C renal
SNB-19 CNS = tested on: SNB-19 CNS
SNB-75 CNS = tested on: SNB-75 CNS
SNB-78 CNS = tested on: SNB-78 CNS
SW-620 colon = tested on: SW-620 colon
TK-10 renal = tested on: TK-10 renal
U251 CNS = tested on: U251 CNS
UACC-257 melanoma = tested on: UACC-257 melanoma
UACC-62 melanoma = tested on: UACC-62 melanoma
UO-31 renal = tested on: UO-31 renal
XF 498 CNS = tested on: XF 498 CNS

CN(N=O)C(=O)N(N)CCCCC(NC(=O)OCc1ccccc1)C(=O)OCc1ccccc1 (stereo not given)
TGI (786-0 renal): 66.5 µM | TGI (A498 renal): > 100 µM | TGI (A549 NSCLC): > 100 µM | TGI (ACHN renal): 34.2 µM | TGI (CAKI-1 renal): 72.3 µM | TGI (CCRF-CEM leukemia): 38.5 µM | TGI (COLO 205 colon): 45.6 µM | TGI (DLD-1 colon): > 100 µM | TGI (DMS 114 small cell lung): > 100 µM | TGI (DMS 273 small cell lung): > 100 µM | TGI (EKVX NSCLC): > 100 µM | TGI (HCC-2998 colon): 63.4 µM | TGI (HCT-116 colon): > 100 µM | TGI (HCT-15 colon): > 100 µM | TGI (HL-60(TB) leukemia): 16.2 µM | TGI (HOP-62 NSCLC): 34.2 µM | TGI (HOP-92 NSCLC): 34.5 µM | TGI (HT29 colon): > 100 µM | TGI (IGROV1 ovarian): > 100 µM | TGI (K-562 leukemia): > 100 µM | TGI (KM12 colon): > 100 µM | TGI (KM20L2 colon): > 100 µM | TGI (LOX IMVI melanoma): 45.8 µM | TGI (LXFL 529 NSCLC): > 100 µM | TGI (M14 melanoma): 70.7 µM | TGI (M19-MEL melanoma): > 100 µM | TGI (MALME-3M melanoma): 95.5 µM | TGI (MOLT-4 leukemia): 52.6 µM | TGI (NCI-H226 lung): 96.2 µM | TGI (NCI-H23 lung): 38.8 µM | TGI (NCI-H460 lung): > 100 µM | TGI (NCI-H522 lung): 24.9 µM | TGI (OVCAR-3 ovarian): 57 µM | TGI (OVCAR-4 ovarian): > 100 µM | TGI (OVCAR-5 ovarian): > 100 µM | TGI (OVCAR-8 ovarian): > 100 µM | TGI (RPMI-8226 leukemia): > 100 µM | TGI (RXF 393 renal): 51.6 µM | TGI (SF-295 CNS): > 100 µM | TGI (SF-539 CNS): 35.2 µM | TGI (SK-MEL-2 melanoma): > 100 µM | TGI (SK-MEL-28 melanoma): > 100 µM | TGI (SK-MEL-5 melanoma): > 100 µM | TGI (SK-OV-3 ovarian): > 100 µM | TGI (SN12C renal): 46.3 µM | TGI (SNB-19 CNS): > 100 µM | TGI (SNB-75 CNS): 62.8 µM | TGI (SNB-78 CNS): 85.9 µM | TGI (SW-620 colon): > 100 µM | TGI (TK-10 renal): > 100 µM | TGI (U251 CNS): > 100 µM | TGI (UACC-257 melanoma): 51.7 µM | TGI (UACC-62 melanoma): 44.7 µM | TGI (UO-31 renal): 33.8 µM | TGI (XF 498 CNS): 32.2 µM

— PubChem BioAssay (NCI)
